According to publication PMC3950855 (British Journal of Cancer, 2014):
“And” between values parts separate entries of the source, which are not always exact repeats. Equal entries are not always repeated. Structures can show the parent of a compound that is named as a salt.

Tests used:
[1] = Plasma pharmacokinetics by LC/PDA; conditions: for Cmax: human, in vivo, im
[2] = test system: GIST; conditions: cited from earlier work; for median time to progression / objective remissions: salvage treatment, ref Demetri et al, 2006, 2012
[3] = Phase I trial safety: adverse events; assay type: in vivo, human
[4] = test system: GIST-T1 (exon 11-mutant) cells; assay: GIST-T1 cells immunoblot; assay type: cell-based
[5] = test system: PBMNC; assay type: cell-based, human; conditions: ex vivo incubation for 8 h
[6] = test system: histone H3 acetylation in PBMNC; assay: Acetylation of histone H3 in PBMNC of study patients; assay type: in vivo, human; conditions: dose level 1, three patients
[7] = 20 mg thrice weekly; ref Fukutomi et al (2012); cited from earlier work
[8] = test system: CYP2D6; conditions: ref Hamberg et al, 2011; Filppula et al, 2012; cited from earlier work
[9] = ref Verweij et al, 2004, Blanke et al, 2008a, 2008b
[10] = both dose levels + IM 400 mg, 12 patients
[11] = panobinostat + IM 400 mg, 12 patients
[12] = Pan 50 nm for 8 h, then withdrawal

## Cc1ccc(NC(=O)c2ccc(CN3CCN(C)CC3)cc2)cc1Nc1nccc(-c2cccnc2)n1 [IM, Imatinib mesylate]
[1]; 400 mg once daily, with pan
  IM trough levels (mean): 2.2 µM
[1]; 400 mg once daily, with pan (combination therapy), ± s.e.m.
  IM trough levels (mean): 1290 ng ml^−1 and 1290 (±440) ng ml^−1
[1]; 400 mg once daily, without pan
  IM trough levels (mean): 1.8 µM
[1]; 400 mg once daily, without pan (run-in), ± s.e.m.
  IM trough levels (mean): 1085 ng ml^−1 and 1085 (±480) ng ml^−1
[1]; combination with panobinostat vs run-in, not statistically significant
  increase of the mean Cmax of IM: 23%
[1]; 400 mg, IM Cmax (mean), 400 mg once daily, with pan
  Cmax: 4300 nM
[1]; 400 mg, IM Cmax (mean), 400 mg once daily, without pan (7-day run-in), ± s.e.m.
  Cmax: 2070 ng/mL
[2]; [9]
  median overall survival: 5 years
  patients with long-lasting responses: 82–86%

## Cc1ccc(NC(=O)c2ccc(CN3CCNCC3)cc2)cc1Nc1nccc(-c2cccnc2)n1 [desmethyl-IM, N-desmethyl-IM]
[1]; during combination with panobinostat
  actual plasma levels of desmethyl-IM vs prediction: as predicted

## Cc1[nH]c2ccccc2c1CCNCc1ccc(/C=C/C(=O)NO)cc1 [panobinostat, Panobinostat]
[3]; [10]
  Anaemia, % of patients: 42% and 41.7%
  Anaemia, No. of patients Total: 5
  Chills, % of patients: 16.7%
  Chills, No. of patients Total: 2
  Constipation, % of patients: 16.7%
  Constipation, No. of patients Total: 2
  Creatinine, % of patients: 58% and 58.3%
  Creatinine, No. of patients Total: 7
  Diarrhoea, % of patients: 42% and 41.7%
  Diarrhoea, No. of patients Total: 5
  Dizziness, % of patients: 25.0%
  Dizziness, No. of patients Total: 3
  Dry mouth, % of patients: 16.7%
  Dry mouth, No. of patients Total: 2
  Dry skin, % of patients: 16.7%
  Dry skin, No. of patients Total: 2
  Dysgeusia, % of patients: 16.7%
  Dysgeusia, No. of patients Total: 2
  Dyspepsia, % of patients: 25.0%
  Dyspepsia, No. of patients Total: 3
  Fatigue, % of patients: 67% and 66.7%
  Fatigue, No. of patients Total: 8
  Headache, % of patients: 16.7%
  Headache, No. of patients Total: 2
  Hypothyroidism, % of patients: 25.0%
  Hypothyroidism, No. of patients Total: 3
  Lymphopenia, % of patients: 16.7%
  Lymphopenia, No. of patients Total: 2
  Muscle spasms, % of patients: 25.0%
  Muscle spasms, No. of patients Total: 3
  Nausea, % of patients: 50%
  Nausea, No. of patients Total: 6
  Neutropenia, % of patients: 16.7%
  Neutropenia, No. of patients Total: 2
  Oedema, % of patients: 25.0%
  Oedema, No. of patients Total: 3
  Thrombocytopenia, % of patients: 91.7%
  Thrombocytopenia, No. of patients Total: 11
  Vomiting, % of patients: 33% and 33.3%
  Vomiting, No. of patients Total: 4
  Weight loss, % of patients: 25.0%
  Weight loss, No. of patients Total: 3
[3]; dose level 1 = panobinostat 20 mg + IM 400 mg
  MTD (dose level): dose level 1
[3]; dose level 2 (30 mg panobinostat and 400 mg IM)
  dose-limiting toxicity: severe thrombocytopenia
[3]; panobinostat 20 mg + IM 400 mg
  Anaemia, No. of patients Grade 2: 3
  Anaemia, No. of patients Total: 3
  Chills, No. of patients Grade 1: 1
  Chills, No. of patients Grade 2: 1
  Chills, No. of patients Total: 2
  Constipation, No. of patients Grade 1: 1
  Constipation, No. of patients Total: 1
  Creatinine, No. of patients Grade 1: 2
  Creatinine, No. of patients Grade 2: 2
  Creatinine, No. of patients Grade 3: 1
  Creatinine, No. of patients Total: 5
  Diarrhoea, No. of patients Grade 1: 3
  Diarrhoea, No. of patients Grade 2: 1
  Diarrhoea, No. of patients Total: 4
  Dizziness, No. of patients Grade 1: 2
  Dizziness, No. of patients Total: 2
  Dry mouth, No. of patients Grade 1: 2
  Dry mouth, No. of patients Total: 2
  Dry skin, No. of patients Grade 1: 1
  Dry skin, No. of patients Total: 1
  Dysgeusia, No. of patients Grade 1: 2
  Dysgeusia, No. of patients Total: 2
  Dyspepsia, No. of patients Grade 1: 2
  Dyspepsia, No. of patients Total: 2
  Fatigue, No. of patients Grade 1: 3
  Fatigue, No. of patients Grade 2: 3
  Fatigue, No. of patients Total: 6
  Headache, No. of patients Grade 1: 1
  Headache, No. of patients Total: 1
  Hypothyroidism, No. of patients Grade 1: 3
  Hypothyroidism, No. of patients Total: 3
  Lymphopenia, No. of patients Grade 3: 1
  Lymphopenia, No. of patients Total: 1
  Muscle spasms, No. of patients Grade 1: 1
  Muscle spasms, No. of patients Grade 2: 1
  Muscle spasms, No. of patients Total: 2
  Nausea, No. of patients Grade 1: 1
  Nausea, No. of patients Grade 2: 1
  Nausea, No. of patients Total: 2
  Neutropenia, No. of patients Grade 4: 1
  Neutropenia, No. of patients Total: 1
  Oedema, No. of patients Grade 1: 2
  Oedema, No. of patients Total: 2
  Thrombocytopenia, No. of patients Grade 1: 3
  Thrombocytopenia, No. of patients Grade 2: 1
  Thrombocytopenia, No. of patients Grade 3: 1
  Thrombocytopenia, No. of patients Grade 4: 1
  Thrombocytopenia, No. of patients Total: 6
  Vomiting, No. of patients Grade 2: 1
  Vomiting, No. of patients Total: 1
  Weight loss, No. of patients Grade 1: 1
  Weight loss, No. of patients Grade 2: 1
  Weight loss, No. of patients Total: 2
[3]; panobinostat 30 mg + IM 400 mg
  Anaemia, No. of patients Grade 2: 2
  Anaemia, No. of patients Total: 2
  Chills, No. of patients Total: 0
  Constipation, No. of patients Grade 1: 1
  Constipation, No. of patients Total: 1
  Creatinine, No. of patients Grade 1: 1
  Creatinine, No. of patients Grade 2: 1
  Creatinine, No. of patients Total: 2
  Diarrhoea, No. of patients Grade 1: 1
  Diarrhoea, No. of patients Total: 1
  Dizziness, No. of patients Grade 1: 1
  Dizziness, No. of patients Total: 1
  Dry mouth, No. of patients Total: 0
  Dry skin, No. of patients Grade 1: 1
  Dry skin, No. of patients Total: 1
  Dysgeusia, No. of patients Total: 0
  Dyspepsia, No. of patients Grade 1: 1
  Dyspepsia, No. of patients Total: 1
  Fatigue, No. of patients Grade 2: 2
  Fatigue, No. of patients Total: 2
  Headache, No. of patients Grade 2: 1
  Headache, No. of patients Total: 1
  Hypothyroidism, No. of patients Total: 0
  Lymphopenia, No. of patients Grade 2: 1
  Lymphopenia, No. of patients Total: 1
  Muscle spasms, No. of patients Grade 2: 1
  Muscle spasms, No. of patients Total: 1
  Nausea, No. of patients Grade 1: 1
  Nausea, No. of patients Grade 2: 2
  Nausea, No. of patients Grade 3: 1
  Nausea, No. of patients Total: 4
  Neutropenia, No. of patients Grade 2: 1
  Neutropenia, No. of patients Total: 1
  Oedema, No. of patients Grade 1: 1
  Oedema, No. of patients Total: 1
  Thrombocytopenia, No. of patients Grade 3: 3
  Thrombocytopenia, No. of patients Grade 4: 2
  Thrombocytopenia, No. of patients Total: 5
  Vomiting, No. of patients Grade 1: 2
  Vomiting, No. of patients Grade 2: 1
  Vomiting, No. of patients Total: 3
  Weight loss, No. of patients Grade 2: 1
  Weight loss, No. of patients Total: 1
[3]; panobinostat + IM 400 mg
  Grade 3 and 4 toxicities clearly attributable to study treatments: thrombocytopenia, neutropenia and nausea
  severe hepatotoxicity: did not occur
[3]; [11]
  patients with at least one adverse event: All patients
  treatment-related deaths: no treatment-related deaths
[1]; Panobinostat Cmax (mean), 20 mg, D1, with IM 400 mg
  Cmax: 36.1 nM
[1]; Panobinostat Cmax (mean), 20 mg, D8, with IM 400 mg
  Cmax: 47.5 nM
[1]; Panobinostat Cmax (mean), 20 mg, D15, with IM 400 mg
  Cmax: 44.6 nM
[4]
  effect of continuous panobinostat treatment for 32 h: reactivation of KIT phosphorylation
[4]; [12]
  persistence of H3 acetylation after removal of panobinostat: 8 h
  time to complete disappearance of H3 acetylation after removal: ≤ 24 h
[5]
  concentration at which H3 acetylation became detectable: ≥ 5 ng/mL
[6]
  time H3 acetylation was maintained in PBMNCs: 24 h
[7]
  Cmax plasma level, panobinostat monotherapy: 10 ng /ml^−1
[8]
  CYP2D6 inhibition: weak inhibitor

## CNC(=O)c1cc(Oc2ccc(NC(=O)Nc3ccc(Cl)c(C(F)(F)F)c3)c(F)c2)ccn1 [regorafenib]
[2]
  median time to progression: ~6 months
  objective remissions: 4.5%

## CCN(CC)CCNC(=O)c1c(C)[nH]c(/C=C2\C(=O)Nc3ccc(F)cc32)c1C [sunitinib]
[2]
  median time to progression: ~6 months
  objective remissions: 7%
